The term IC50 denotes the midpoint of a concentration-inhibition curve.

Test [1] has as its target T1, G2019S-LRRK2 (recombinant GST-LRRK2 delta970) (Homo sapiens, UniProt Q5S007, G2019S).
T1 construct: Recombinant GST-LRRK2 (delta970); GST (N); host or cells: baculovirus-infected Sf9 insect cells
Description: LRRK2 kinase assay, G2019S mutant (32P radiometric, peptide substrate). Type of test: biochemical. The note with it: G2019S-LRRK2 30 nM, ATP ~52 μM (Km), 30 min at 30° C. The protocol: (§1) Compounds were assessed for inhibition of LRRK2 inhibition using the following procedure. Recombinant GST-LRRK2 (delta970) purified from baculovirus infected insect cells (SF9), at least 90% pure and either wild-type sequence or bearing the pathogenic G2019S mutation, was combined into a kinase buffer at 30 nM concentration. Kinase buffer consists of 50 mM Tris HCl pH 7.4, 1 mM EDTA, and 50 μM peptide substrate (amino acid sequence […]). Experimental compounds or control (no compound) were added at desired concentrations in DMSO and water, where final concentration of DMSO in kinase reactions was 0.1% for all drug concentrations. […] Reactions were incubated at 1400 RPM at 30° C. for 30 min. and then spotted in triplicate directly onto a slot-blot apparatus fitted with phospho-cellulose paper and allowed to dry. Each slot was then washed with 10 mM phosphoric acid buffer until beta-radiation could not be detected in eluted wash buffer, usually ˜1 mL per slot. Paper within each slot were excised and radiation measured by liquid scintillation.

Test [2] deals with T2, WT-LRRK2 (recombinant GST-LRRK2 delta970) (Homo sapiens, UniProt Q5S007).
T2 construct: Recombinant GST-LRRK2 (delta970); GST (N); host or cells: baculovirus-infected Sf9 insect cells
Description: LRRK2 kinase assay, wild type (32P radiometric, peptide substrate). Type of test: biochemical. The note with it: WT-LRRK2 30 nM, ATP ~92 μM (Km), 30 min at 30° C. The protocol:
as §1

SMILES strings stand for the structures. Several values for one entry are separate records, joined by “and”; a condition that tells them apart may be missing. Equal entries are not always repeated.

T2 sequence (Q5S007 970-2527 limits assumed): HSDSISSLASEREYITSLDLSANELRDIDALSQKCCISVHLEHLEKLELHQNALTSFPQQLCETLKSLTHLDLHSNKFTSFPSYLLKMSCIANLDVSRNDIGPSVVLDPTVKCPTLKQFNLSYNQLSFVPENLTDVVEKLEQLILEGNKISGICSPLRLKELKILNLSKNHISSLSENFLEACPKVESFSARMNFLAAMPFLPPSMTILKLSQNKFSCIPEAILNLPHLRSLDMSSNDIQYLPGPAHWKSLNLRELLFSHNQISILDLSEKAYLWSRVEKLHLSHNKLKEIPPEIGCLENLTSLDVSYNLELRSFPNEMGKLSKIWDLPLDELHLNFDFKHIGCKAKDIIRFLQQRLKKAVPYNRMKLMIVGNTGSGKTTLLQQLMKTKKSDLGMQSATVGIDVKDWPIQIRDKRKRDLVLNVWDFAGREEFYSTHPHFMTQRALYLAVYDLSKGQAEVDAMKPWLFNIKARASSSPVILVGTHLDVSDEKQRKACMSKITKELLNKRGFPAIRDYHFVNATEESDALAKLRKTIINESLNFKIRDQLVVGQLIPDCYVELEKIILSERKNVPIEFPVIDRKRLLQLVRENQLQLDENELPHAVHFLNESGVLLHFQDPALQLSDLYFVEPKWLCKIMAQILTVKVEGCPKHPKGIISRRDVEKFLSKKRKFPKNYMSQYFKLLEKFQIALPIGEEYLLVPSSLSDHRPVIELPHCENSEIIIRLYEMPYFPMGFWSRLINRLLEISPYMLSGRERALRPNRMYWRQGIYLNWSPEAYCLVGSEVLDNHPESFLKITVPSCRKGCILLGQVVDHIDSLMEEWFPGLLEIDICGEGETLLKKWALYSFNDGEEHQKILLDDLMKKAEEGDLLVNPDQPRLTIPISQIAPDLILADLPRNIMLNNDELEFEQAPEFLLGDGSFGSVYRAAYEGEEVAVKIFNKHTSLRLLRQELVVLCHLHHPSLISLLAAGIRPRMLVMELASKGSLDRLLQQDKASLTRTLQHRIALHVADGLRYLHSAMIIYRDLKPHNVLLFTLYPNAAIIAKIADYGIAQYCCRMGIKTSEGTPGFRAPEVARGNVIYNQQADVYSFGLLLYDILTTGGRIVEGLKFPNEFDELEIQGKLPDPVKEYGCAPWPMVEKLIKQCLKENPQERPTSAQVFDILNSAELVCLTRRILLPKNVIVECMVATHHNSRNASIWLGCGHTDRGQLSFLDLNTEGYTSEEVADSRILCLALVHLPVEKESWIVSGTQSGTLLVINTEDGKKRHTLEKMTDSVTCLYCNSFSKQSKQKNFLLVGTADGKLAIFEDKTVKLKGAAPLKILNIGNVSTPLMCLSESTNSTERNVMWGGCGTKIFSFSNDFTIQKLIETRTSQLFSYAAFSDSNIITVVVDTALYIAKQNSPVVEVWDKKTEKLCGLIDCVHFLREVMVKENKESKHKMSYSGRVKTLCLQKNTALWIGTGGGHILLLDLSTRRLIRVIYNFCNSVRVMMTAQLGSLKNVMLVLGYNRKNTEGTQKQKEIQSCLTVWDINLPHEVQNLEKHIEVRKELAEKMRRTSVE
T1 sequence (Q5S007 970-2527 G2019S limits assumed): as the sequence (Q5S007 970-2527 limits assumed) above, with G1050S counted along it

Regarding `Cn1cc(Nc2nc(NC3CCC3)c3cc[nH]c3n2)cn1` [Compound 7, N4-cyclobutyl-N2-(1-methyl-1H-pyrazol-4-yl)-7H-pyrrolo[2,3-d]pyrimidine-2,4-diamine], the IC50 in test [1] turned out to be 0.019 µM; in test [2] it was 0.008 µM. The matching figures for `CC(O)Cn1cc(Nc2nc(N[C@@H](C)C3CC3)c3cc[nH]c3n2)nn1` (stereo partly drawn) [Compound 54, 1-(4-((4-(((S)-1-cyclopropylethyl)amino)-7H-pyrrolo[2,3-d]pyrimidin-2-yl)amino)-1H-1,2,3-triazol-1-yl)propan-2-ol]: 0.027 µM and 0.021 µM. The corresponding values for `C[C@H](Nc1nc(Nc2cn(C3COC3)nn2)nc2[nH]ccc12)C1CC1` [Compound 56, (S)-N4-(1-cyclopropylethyl)-N2-(1-(oxetan-3-yl)-1H-1,2,3-triazol-4-yl)-7H-pyrrolo[2,3-d]pyrimidine-2,4-diamine] are 0.115 µM and 0.073 µM.

For `CC(C)n1cc(Nc2nc(N[C@@H](C)c3ccccn3)c3cc[nH]c3n2)cn1` [Compound 35, (S)-N2-(1-isopropyl-1H-pyrazol-4-yl)-N4-(1-(pyridin-2-yl)ethyl)-7H-pyrrolo[2,3-d]pyrimidine-2,4-diamine], the IC50 is 0.097 µM in test [1] and 0.066 µM in test [2]. With `C[C@H](Nc1nc(Nc2cn([C@H](C)CO)nn2)nc2[nH]ccc12)C1CC1` [Compound 55, (R)-2-(4-((4-(((S)-1-cyclopropylethyl)amino)-7H-pyrrolo[2,3-d]pyrimidin-2-yl)amino)-1H-1,2,3-triazol-1-yl)propan-1-ol], the IC50 in test [1] was 0.013 µM and 0.032 µM; in test [2] it was 0.009 µM and 0.019 µM.

For the compound `C[C@H](Nc1nc(Nc2cnn(C3CCN(C)CC3)c2)nc2[nH]ccc12)C1CC1` [Compound 31, (S)-N4-(1-cyclopropylethyl)-N2-(1-(1-methylpiperidin-4-yl)-1H-pyrazol-4-yl)-7H-pyrrolo[2,3-d]pyrimidine-2,4-diamine], the values for the IC50 in test [1] and in test [2] were 0.023 µM and 0.02 µM, respectively. The corresponding values for `C[C@H](Nc1nc(Nc2cnn(CCN(C)C)c2)nc2[nH]ccc12)C1CC1` [Compound 41, (S)-N4-(1-cyclopropylethyl)-N2-(1-(2-(dimethylamino)ethyl)-1H-pyrazol-4-yl)-7H-pyrrolo[2,3-d]pyrimidine-2,4-diamine] are 0.065 µM and 0.05 µM.

As for `Cc1c(Nc2nc(N[C@@H](C)c3ccccc3)c3cc[nH]c3n2)cnn1C(C)C` [Compound 24, (S)-N2-(1-isopropyl-5-methyl-1H-pyrazol-phenylethyl)-7H-pyrrolo[2,3-d]pyrimidine-2,4-diamine], the IC50 in test [1] turned out to be 0.063 µM; in test [2], 0.055 µM.

For the compound `CCn1cc(Nc2nc(N[C@@H](C)C3CC3)c3cc[nH]c3n2)cn1` [Compound 29], the IC50 worked out at 0.017 µM in test [1] and 0.012 µM in test [2].

On to `CC(C)n1cc(Nc2nc(NC3CCC3)c3cc[nH]c3n2)cn1` [Compound 8, N4-cyclobutyl-N2-(1-isopropyl-1H-pyrazol-4-yl)-7H-pyrrolo[2,3-d]pyrimidine-2,4-diamine], for which the IC50 in test [1] worked out at 0.009 µM; in test [2], 0.005 µM. The matching figures for `C[C@H](Nc1nc(Nc2cnn(C)c2)nc2[nH]ccc12)C1CC1` [Compound 28, (S)-N4-(1-cyclopropylethyl)-N2-(1-methyl-1H-pyrazol-4-yl)-7H-pyrrolo[2,3-d]pyrimidine-2,4-diamine]: 0.03 µM and 0.02 µM. Turning to `C[C@H](Nc1nc(Nc2cnn(C)c2)nc2[nH]cnc12)C1CC1` [Compound 9, (S)-N6-(1-cyclopropylethyl)-N2-(1-methyl-1H-pyrazol-4-yl)-9H-purine-2,6-diamine], the results for the IC50 in test [1] and in test [2] were 0.1 µM and 0.038 µM, respectively. Regarding `COCC(C)n1cc(Nc2nc(N[C@@H](C)C3CC3)c3cc[nH]c3n2)cn1` (stereo partly drawn) [Compound 34, N4-((S)-1-cyclopropylethyl)-N2-(1-(1-methoxypropan-2-yl)-1H-pyrazol-4-yl)-7H-pyrrolo[2,3-d]pyrimidine-2,4-diamine], the results for the IC50 in test [1] and in test [2] were 0.015 µM and 0.011 µM, respectively. The corresponding values for `C[C@H](Nc1nc(Nc2cn([C@@H](C)CO)nn2)nc2[nH]ccc12)C1CC1` [Compound 58, (S)-2-(4-((4-(((S)-1-cyclopropylethyl)amino)-7H-pyrrolo[2,3-d]pyrimidin-2-yl)amino)-1H-1,2,3-triazol-1-yl)propan-1-ol] are 0.101 µM and 0.072 µM.

Consider `CC(C)n1ccc(Nc2nc(N[C@@H](C)C3CC3)c3nc[nH]c3n2)n1` [Compound 59, (S)-N6-(1-cyclopropylethyl)-N2-(1-isopropyl-1H-pyrazol-3-yl)-9H-purine-2,6-diamine], for which the IC50 in test [1] worked out at 0.115 µM; in test [2], 0.051 µM. The corresponding values for `C[C@H](Nc1nc(Nc2cn(C3CCOC3)nn2)nc2[nH]ccc12)C1CC1` (stereo in doubt) [Compound 50, N4-((S)-1-cyclopropylethyl)-N2-(1-((S)-tetrahydrofuran-3-yl)-1H-1,2,3-triazol-4-yl)-7H-pyrrolo[2,3-d]pyrimidine-2,4-diamine] are 0.061 µM and 0.04 µM. Regarding `COCCn1cc(Nc2nc(N[C@@H](C)C3CC3)c3cc[nH]c3n2)cn1` [Compound 32, (S)-N4-(1-cyclopropylethyl)-N2-(1-(2-methoxyethyl)-1H-pyrazol-4-yl)-7H-pyrrolo[2,3-d]pyrimidine-2,4-diamine], the half-maximal inhibitory concentration (IC50) in test [1] and in test [2] was 0.011 µM throughout. As for `CC(C)n1cc(Nc2nc(N(C)[C@@H](C)C3CC3)c3cc[nH]c3n2)cn1` [Compound 48, (S)-N4-(1-cyclopropylethyl)-N2-(1-isopropyl-1H-pyrazol-4-yl)-N4-methyl-7H-pyrrolo[2,3-d]pyrimidine-2,4-diamine], the IC50 in test [1] was 0.044 µM; in test [2], 0.019 µM.

Regarding `CC(C)n1cc(Nc2nc(N[C@@H](C)C3CCC3)c3cc[nH]c3n2)cn1` [Compound 42, (S)-N4-(1-cyclobutylethyl)-N2-(1-isopropyl-1H-pyrazol-4-yl)-7H-pyrrolo[2,3-d]pyrimidine-2,4-diamine], the results for the IC50 in test [1] and in test [2] were 0.078 µM and 0.067 µM, respectively. The corresponding values for `COCC(C)n1cc(Nc2nc(N(C)[C@@H](C)C3CC3)c3cc[nH]c3n2)cn1` (stereo partly drawn) [Compound 49, N4-((S)-1-cyclopropylethyl)-N2-(1-(1-methoxypropan-2-yl)-1H-pyrazol-4-yl)-N4-methyl-7H-pyrrolo[2,3-d]pyrimidine-2,4-diamine] are 0.069 µM and 0.027 µM. The corresponding values for `Cc1cc(Nc2nc(N[C@@H](C)C3CC3)c3nc[nH]c3n2)n[nH]1` [Compound 10, (S)-N6-(1-cyclopropylethyl)-N2-(5-methyl-1H-pyrazol-3-yl)-9H-purine-2,6-diamine] are 0.048 µM and 0.019 µM. The corresponding values for `CNC(=O)C(C)n1cc(Nc2nc(N[C@@H](C)C3CC3)c3cc[nH]c3n2)c(Cl)n1` (stereo partly drawn) [Compound 46, 2-(3-chloro-4-((4-(((S)-1-cyclopropylethyl)amino)-7H-pyrrolo[2,3-d]pyrimidin-2-yl)amino)-1H-pyrazol-1-yl)-N-methylpropanamide] are 0.017 µM and 0.012 µM. Take `C[C@H](Nc1nc(Nc2cn([C@H]3CCOC3)nn2)nc2[nH]ccc12)C1CC1` [Compound 51, N4-((S)-1-cyclopropylethyl)-N2-(1-((S)-tetrahydrofuran-3-yl)-1H-1,2,3-triazol-4-yl)-7H-pyrrolo[2,3-d]pyrimidine-2,4-diamine]: the IC50 in test [1] worked out at 0.102 µM; in test [2] it was 0.066 µM. The matching figures for `CC(C)n1cc(Nc2nc(N[C@@H](C)C3CC3)c3nc[nH]c3n2)cn1` [Compound 12, (S)-N6-(1-cyclopropylethyl)-N2-(1-isopropyl-1H-pyrazol-4-yl)-9H-purine-2,6-diamine]: 0.022 µM and 0.01 µM. The matching figures for `CC(C)n1cc(Nc2nc(NC3CCC3)c3nc[nH]c3n2)cn1` [Compound 13, N6-cyclobutyl-N2-(1-isopropyl-1H-pyrazol-4-yl)-9H-purine-2,6-diamine]: 0.015 µM and 0.007 µM. The corresponding values for `Cc1cc(Nc2nc(N[C@@H](C)C3CC3)c3nc[nH]c3n2)nn1C(C)C` [Compound 60, (S)-N6-(1-cyclopropylethyl)-N2-(1-isopropyl-5-methyl-1H-pyrazol-3-yl)-9H-purine-2,6-diamine] are 0.065 µM and 0.032 µM.

For `COCc1cc(Nc2nc(N[C@@H](C)C3CC3)c3cc[nH]c3n2)n[nH]1` [Compound 61, (S)-N4-(1-cyclopropylethyl)-N2-(5-(methoxymethyl)-1H-pyrazol-3-yl)-7H-pyrrolo[2,3-d]pyrimidine-2,4-diamine], the IC50 in test [1] was 0.099 µM; in test [2] it was 0.064 µM. For `COCCn1cc(Nc2nc(N[C@@H](C)C3CC3)c3cc[nH]c3n2)nn1` [Compound 39, (S)-N4-(1-cyclopropylethyl)-N2-(1-(2-methoxyethyl)-1H-1,2,3-triazol-4-yl)-7H-pyrrolo[2,3-d]pyrimidine-2,4-diamine], the IC50 in test [1] is 0.058 µM and 0.113 µM and 0.088 µM.

These data come from US10023579B2, “Pyrrolopyrimidine compounds, use as inhibitors of the kinase LRRK2, and methods for preparation thereof” (Southern Research Institute, priority 2015, dated 2018).
